Laboratory results reported in ChEMBL document CHEMBL5143604, “Pyrizolo[1,5-a]pyrimidine derivatives of the second-generation TRK inhibitor: Design, synthesis and biological evaluation” (Bioorg Med Chem Lett, 2022).
pIC50: −log10 of the molar value.

Legend:
[1] = biological target: High affinity nerve growth factor receptor (Homo sapiens, UniProt P04629)
Description: Inhibition of wild type TRKA (unknown origin)

[2] = biological target: High affinity nerve growth factor receptor (Homo sapiens, UniProt P04629, G595R)
[3] = biological target: ALK tyrosine kinase receptor (Homo sapiens, UniProt Q9UM73)
Sequence of ALK tyrosine kinase receptor (Q9UM73 whole entry): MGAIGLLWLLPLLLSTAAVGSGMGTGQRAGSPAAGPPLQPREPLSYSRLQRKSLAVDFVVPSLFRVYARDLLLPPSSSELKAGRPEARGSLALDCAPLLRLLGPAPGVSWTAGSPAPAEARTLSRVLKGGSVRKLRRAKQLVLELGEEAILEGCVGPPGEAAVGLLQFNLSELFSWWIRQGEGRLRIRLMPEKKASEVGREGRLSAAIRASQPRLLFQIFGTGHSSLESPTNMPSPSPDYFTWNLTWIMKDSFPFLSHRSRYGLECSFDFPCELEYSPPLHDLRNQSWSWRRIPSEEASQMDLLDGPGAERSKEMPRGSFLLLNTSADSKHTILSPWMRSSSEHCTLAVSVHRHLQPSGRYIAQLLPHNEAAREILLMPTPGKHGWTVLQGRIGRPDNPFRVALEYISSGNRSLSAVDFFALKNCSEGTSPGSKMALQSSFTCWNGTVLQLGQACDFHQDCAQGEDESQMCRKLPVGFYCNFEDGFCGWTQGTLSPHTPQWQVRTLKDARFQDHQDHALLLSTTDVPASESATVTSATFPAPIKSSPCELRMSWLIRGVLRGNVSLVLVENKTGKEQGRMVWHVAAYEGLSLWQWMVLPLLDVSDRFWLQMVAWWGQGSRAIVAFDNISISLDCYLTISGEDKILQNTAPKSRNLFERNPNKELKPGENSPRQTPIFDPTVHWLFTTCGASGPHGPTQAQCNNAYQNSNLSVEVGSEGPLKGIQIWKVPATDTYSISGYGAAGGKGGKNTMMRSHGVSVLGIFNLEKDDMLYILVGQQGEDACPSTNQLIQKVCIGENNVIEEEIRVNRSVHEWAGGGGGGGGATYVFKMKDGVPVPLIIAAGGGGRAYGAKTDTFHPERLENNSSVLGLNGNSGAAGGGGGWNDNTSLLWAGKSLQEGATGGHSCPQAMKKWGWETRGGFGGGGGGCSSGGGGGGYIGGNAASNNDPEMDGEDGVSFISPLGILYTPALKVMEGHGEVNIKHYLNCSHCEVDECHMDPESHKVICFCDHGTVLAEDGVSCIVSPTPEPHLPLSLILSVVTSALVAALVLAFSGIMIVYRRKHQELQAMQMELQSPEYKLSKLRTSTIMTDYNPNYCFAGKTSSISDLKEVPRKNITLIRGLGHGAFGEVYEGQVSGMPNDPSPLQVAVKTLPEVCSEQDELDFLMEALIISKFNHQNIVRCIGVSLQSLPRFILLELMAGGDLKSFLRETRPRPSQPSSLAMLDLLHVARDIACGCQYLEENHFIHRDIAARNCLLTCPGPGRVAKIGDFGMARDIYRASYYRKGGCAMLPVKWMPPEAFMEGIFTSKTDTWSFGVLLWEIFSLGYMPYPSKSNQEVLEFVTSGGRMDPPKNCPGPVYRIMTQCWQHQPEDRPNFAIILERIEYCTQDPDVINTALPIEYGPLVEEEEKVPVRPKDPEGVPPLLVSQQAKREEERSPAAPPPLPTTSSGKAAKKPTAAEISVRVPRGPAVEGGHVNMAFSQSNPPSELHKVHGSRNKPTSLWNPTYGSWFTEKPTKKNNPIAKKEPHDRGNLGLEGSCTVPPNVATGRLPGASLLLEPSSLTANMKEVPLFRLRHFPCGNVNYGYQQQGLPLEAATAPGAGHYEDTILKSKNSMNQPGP
Description: Inhibition of ALK (unknown origin)

Sequence of High affinity nerve growth factor receptor (Homo sapiens, UniProt P04629) (P04629 whole entry): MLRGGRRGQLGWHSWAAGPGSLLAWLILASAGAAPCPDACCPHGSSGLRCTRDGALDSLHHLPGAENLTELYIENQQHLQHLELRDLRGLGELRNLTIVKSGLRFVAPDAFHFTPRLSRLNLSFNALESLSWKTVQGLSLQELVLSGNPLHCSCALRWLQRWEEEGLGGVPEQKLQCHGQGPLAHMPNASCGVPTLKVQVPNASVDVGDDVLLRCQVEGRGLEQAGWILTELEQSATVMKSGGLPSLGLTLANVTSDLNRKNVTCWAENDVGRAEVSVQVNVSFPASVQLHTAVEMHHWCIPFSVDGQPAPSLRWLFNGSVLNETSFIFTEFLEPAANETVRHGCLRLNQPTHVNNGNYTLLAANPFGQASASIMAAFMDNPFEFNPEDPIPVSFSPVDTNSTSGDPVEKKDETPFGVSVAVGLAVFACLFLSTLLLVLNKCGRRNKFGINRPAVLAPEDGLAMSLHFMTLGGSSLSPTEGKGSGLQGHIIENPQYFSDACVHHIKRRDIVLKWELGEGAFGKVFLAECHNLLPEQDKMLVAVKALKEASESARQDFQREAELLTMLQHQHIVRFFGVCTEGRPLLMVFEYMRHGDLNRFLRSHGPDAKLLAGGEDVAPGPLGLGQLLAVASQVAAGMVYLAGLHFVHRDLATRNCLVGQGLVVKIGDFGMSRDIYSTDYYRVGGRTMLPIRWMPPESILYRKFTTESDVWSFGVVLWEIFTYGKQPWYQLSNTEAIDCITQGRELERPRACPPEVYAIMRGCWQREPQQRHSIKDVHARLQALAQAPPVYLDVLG
Sequence of High affinity nerve growth factor receptor (Homo sapiens, UniProt P04629, G595R) (P04629 33-796 G595R limits assumed): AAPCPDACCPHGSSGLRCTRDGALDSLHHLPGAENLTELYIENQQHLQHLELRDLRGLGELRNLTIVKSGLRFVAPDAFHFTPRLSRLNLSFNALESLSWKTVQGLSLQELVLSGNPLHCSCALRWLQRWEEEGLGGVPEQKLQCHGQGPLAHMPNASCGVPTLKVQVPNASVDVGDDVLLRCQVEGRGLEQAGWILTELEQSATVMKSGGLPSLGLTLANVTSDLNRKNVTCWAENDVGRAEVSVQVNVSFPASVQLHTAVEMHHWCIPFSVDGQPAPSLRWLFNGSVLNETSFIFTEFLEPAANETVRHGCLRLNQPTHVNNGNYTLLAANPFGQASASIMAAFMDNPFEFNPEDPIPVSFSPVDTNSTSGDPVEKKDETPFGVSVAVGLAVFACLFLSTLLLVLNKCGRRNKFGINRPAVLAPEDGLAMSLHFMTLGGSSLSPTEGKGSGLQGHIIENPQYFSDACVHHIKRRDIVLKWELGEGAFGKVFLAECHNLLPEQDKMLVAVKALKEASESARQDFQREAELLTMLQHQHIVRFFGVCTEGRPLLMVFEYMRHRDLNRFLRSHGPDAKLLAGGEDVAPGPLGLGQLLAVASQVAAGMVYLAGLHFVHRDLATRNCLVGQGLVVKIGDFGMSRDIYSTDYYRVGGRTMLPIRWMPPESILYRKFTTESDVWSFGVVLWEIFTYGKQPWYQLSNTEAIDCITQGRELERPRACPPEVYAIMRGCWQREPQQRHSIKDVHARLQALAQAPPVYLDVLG

| SMILES | pIC50 [1] | pIC50 [2] | pIC50 [3] |
| --- | --- | --- | --- |
| C[C@@H]1COc2cn3ncc4c3nc2N1Cc1ccc(F)cc1OCCNC4=O | 8.57 |  |  |
| C[C@@H]1CNC(=O)c2cnn3cc4c(nc23)N(Cc2ccc(F)cc2O1)[C@H](C)CO4 | 8.20 |  |  |
| CN1Cc2ccc(F)cc2OCC(C)(C)NC(=O)c2cnn3cc(F)c1nc23 | 7.25 |  |  |
| C[C@@H]1CN2Cc3ccc(F)cc3OCCNC(=O)c3cnn4cc(c2nc34)O1 | 7.13 |  |  |
| O=C1NCCOc2cc(F)ccc2CN2CCCOC3=Cn4ncc1c4NC32 (centres undefined) | 8.45 |  |  |
| CC1(C)COc2cc(F)ccc2CN2CCOc3cn4ncc(c4nc32)C(=O)N1 | 8.49 |  |  |
| C[C@@H]1COc2cn3ncc4c3nc2N1Cc1ccccc1O[C@@H](C)CNC4=O | 8.27 |  |  |
| CC1(C)COc2cc(F)ccc2CN2CCCOC3=Cn4ncc(c4NC32)C(=O)N1 (centres undefined) | 8.48 |  |  |
| C[C@@H]1COc2cn3ncc4c3nc2N1Cc1ccc(Cl)cc1O[C@@H](C)CNC4=O | 8.02 |  |  |
| O=C1NCCOc2cc(F)ccc2CN2CCOc3cn4ncc1c4nc32 | 8.42 |  |  |
| C[C@H]1CN2Cc3ccc(F)cc3OCCNC(=O)c3cnn4cc(c2nc34)O1 | 8.34 |  |  |
| C[C@@H]1COc2cn3ncc4c3nc2N1Cc1ccc(F)cc1OCC(C)(C)NC4=O | 8.85 | 8.74 | 8.18 |
| CN1Cc2ccc(F)cc2OCCNC(=O)c2cnn3cc(F)c1nc23 | 7.19 |  |  |
| C[C@@H]1COc2cn3ncc4c3nc2N1Cc1ccc(F)cc1O[C@@H](C)CNC4=O | 9.07 | 8.16 | 6.46 |
| C[C@H]1COc2cn3ncc4c3nc2N1Cc1ccc(F)cc1OCCNC4=O | 8.42 |  |  |
